In patent US8486933B2, “Pyrimidine inhibitors of kinase activity” (AbbVie Inc., priority 2009, dated 2013):
pIC50: −log10 of the molar value.

Molecular target: T1, human IGF-1R (Homo sapiens, UniProt P08069)
T1 construct: human IGF-1R, amino acids 954-1367 expressed by baculovirus in Sf21 cells; GST (C); purchased Cell Signaling Technology; host or cells: baculovirus in Sf21 cells
Test: IGF-1R homogenous time-resolved fluorescence (HTRF) in vitro kinase assay
Format: biochemical
Settings: recombinant GST-tagged human IGF-1R aa 954-1367; ATP 50 μM; 60 minutes at room temperature
Description: IGF-1R kinase activity was assayed by a homogenous time-resolved fluorescence (HTRF) in vitro kinase assay (Mathis, G., HTRF(R) Technology. J Biomol Screen, 1999. 4(6): p. 309-314). Specifically, 10 μL C-terminal GST-tagged, recombinant, human IGF-1R, amino acids 954-1367 expressed by baculovirus in Sf21 cells (Cell Singaling Technology) was mixed with 10 μL inhibitor (various concentrations, 2% final DMSO) and 10 μL of ATP (50 μM final concentration) in reaction buffer (50 mM HEPES, pH 7.5, 10 mM MgCl2, 2 mM MnCl2, 0.1% BSA and 1 mM DTT, 40 μL final volume). The reaction was initiated by addition of 10 μL of biotinylated peptide substrate (Biotin-Ahx-[…], 0.5 μM final concentration) in a black 384-well plate (Packard). […] The quenched reaction was allowed to stand at room temperature for 1 hour and then read in a time-resolved fluorescence detector (Envision, Perkin Elmer) at 615 nm and 665 nm simultaneously. The ratio between the signal of 615 nm and 665 nm was used in the calculation of the IC50.

T1 sequence (P08069 954-1367): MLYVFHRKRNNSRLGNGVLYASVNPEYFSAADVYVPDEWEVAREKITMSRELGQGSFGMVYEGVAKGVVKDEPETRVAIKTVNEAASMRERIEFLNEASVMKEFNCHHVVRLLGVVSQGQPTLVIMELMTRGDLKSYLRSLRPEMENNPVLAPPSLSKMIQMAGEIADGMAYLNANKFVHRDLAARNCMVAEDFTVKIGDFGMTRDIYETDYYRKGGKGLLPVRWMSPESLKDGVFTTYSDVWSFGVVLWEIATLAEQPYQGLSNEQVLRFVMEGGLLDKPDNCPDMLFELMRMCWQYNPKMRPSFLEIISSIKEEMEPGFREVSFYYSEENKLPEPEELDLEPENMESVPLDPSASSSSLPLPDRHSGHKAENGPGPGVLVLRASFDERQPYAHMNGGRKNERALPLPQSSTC

pIC50	SMILES
6.30 to 7.00	CCN1CCN(c2ccc(Nc3ncc(Br)c(Nc4ccc5scnc5c4)n3)cc2)CC1 [Example 14, N^4-1,3-benzothiazol-5-yl-5-bromo-N^2-[4-(4-ethylpiperazin-1-yl)phenyl]pyrimidine-2,4-diamine]
7.30 to 8.00	CN(C)C1CCN(c2ccc(Nc3ncc(Br)c(Nc4cc5cnn(C)c5cc4S(C)(=O)=O)n3)cc2)CC1 [Example 37, 5-bromo-N^2-{4-[4-(dimethylamino)piperidin-1-yl]phenyl}-N^4-[1-methyl-6-(methylsulfonyl)-1H-indazol-5-yl]pyrimidine-2,4-diamine]
> 8.00	CCS(=O)(=O)c1cc2[nH]ncc2cc1Nc1nc(Nc2ccc(N3CCC(N(C)C)CC3)cc2OC)ncc1Br [Example 30, 5-bromo-N^2-{4-[4-(dimethylamino)piperidin-1-yl]-2-methoxyphenyl}-N^4-[6-(ethylsulfonyl)-1H-indazol-5-yl]pyrimidine-2,4-diamine]
7.30 to 8.00	CNC(=O)c1cc2c(cnn2C)cc1Nc1nc(Nc2ccc(N3CCC(N(C)C)CC3)cc2)ncc1Br [Example 38, 5-{[5-bromo-2-({4-[4-(dimethylamino)piperidin-1-yl]phenyl}amino)pyrimidin-4-yl]amino}-N,1-dimethyl-1H-indazole-6-carboxamide]
7.30 to 8.00	COc1cc(N2CCC(N(C)C)CC2)ccc1Nc1ncc(Br)c(Nc2cc3cn[nH]c3cc2SC(C)C)n1 [Example 24, 5-bromo-N^2-{4-[4-(dimethylamino)piperidin-1-yl]-2-methoxyphenyl}-N^4-[6-(isopropylthio)-1H-indazol-5-yl]pyrimidine-2,4-diamine]
7.00 to 7.29	CCN1CCN(c2ccc(Nc3ncc(Br)c(Nc4ccc5[nH]ncc5c4)n3)cc2)CC1 [Example 7, 5-bromo-N^2-[4-(4-ethylpiperazin-1-yl)phenyl]-N^4-1H-indazol-5-ylpyrimidine-2,4-diamine]
> 8.00	COc1cc(N2CCC(N(C)C)CC2)ccc1Nc1ncc(Br)c(Nc2cc3cn[nH]c3cc2S(=O)(=O)C(C)C)n1 [Example 23, 5-bromo-N^2-{4-[4-(dimethylamino)piperidin-1-yl]-2-methoxyphenyl}-N^4-[6-(isopropylsulfonyl)-1H-indazol-5-yl]pyrimidine-2,4-diamine]
7.30 to 8.00	CCS(=O)(=O)c1cc2c(cnn2C)cc1Nc1nc(Nc2ccc(N3CCC(N(C)C)CC3)cc2)ncc1Br [Example 36, 5-bromo-N^2-{4-[4-(dimethylamino)piperidin-1-yl]phenyl}-N^4-[6-(ethylsulfonyl)-1-methyl-1H-indazol-5-yl]pyrimidine-2,4-diamine]
7.30 to 8.00	CNC(=O)c1cc2c(cnn2C)cc1Nc1nc(Nc2ccc(N3CCOCC3)cc2OC)ncc1Br [Example 41, 5-({5-bromo-2-[(2-methoxy-4-morpholin-4-ylphenyl)amino]pyrimidin-4-yl}amino)-N,1-dimethyl-1H-indazole-6-carboxamide]
< 6.30	COc1cc(N2CCC(N3CCN(C)CC3)CC2)ccc1Nc1ncc(Br)c(Nc2ccc3ccc(-c4ccccc4)nc3c2)n1 [Example 48, 5-bromo-N^2-{2-methoxy-4-[4-(4-methylpiperazin-1-yl)piperidin-1-yl]phenyl}-N^4-(2-phenylquinolin-7-yl)pyrimidine-2,4-diamine]
7.00 to 7.29	COc1cc(N2CCC(N(C)C)CC2)ccc1Nc1ncc(Br)c(Nc2ccc3c(cnn3C)c2)n1 [Example 19, 5-bromo-N^2-{4-[4-(dimethylamino)piperidin-1-yl]-2-methoxyphenyl}-N^4-(1-methyl-1H-indazol-5-yl)pyrimidine-2,4-diamine]
6.30 to 7.00	CCN1CCN(c2ccc(Nc3ncc(Br)c(Nc4ccc5c(c4)ncn5Cc4ccccc4)n3)cc2)CC1 [Example 4, N^4-(1-benzyl-1H-benzimidazol-5-yl)-5-bromo-N^2-[4-(4-ethylpiperazin-1-yl)phenyl]pyrimidine-2,4-diamine]
7.30 to 8.00	CCS(=O)(=O)c1cc2c(cnn2C)cc1Nc1nc(Nc2ccc(N3CCOCC3)cc2OC)ncc1Br [Example 39, 5-bromo-N^4-[6-(ethylsulfonyl)-1-methyl-1H-indazol-5-yl]-N^2-(2-methoxy-4-morpholin-4-ylphenyl)pyrimidine-2,4-diamine]
> 8.00	CCS(=O)(=O)c1cc2c(cnn2C)cc1Nc1nc(Nc2ccc(N3CCN(C(C)C)CC3)cc2OC)ncc1Br [Example 42, 5-bromo-N^4-[6-(ethylsulfonyl)-1-methyl-1H-indazol-5-yl]-N^2-[4-(4-isopropylpiperazin-1-yl)-2-methoxyphenyl]pyrimidine-2,4-diamine]
6.30 to 7.00	CCN1CCN(c2ccc(Nc3ncc(C(F)(F)F)c(Nc4ccc5[nH]ncc5c4)n3)cc2)CC1 [Example 11, N^2-[4-(4-ethylpiperazin-1-yl)phenyl]-N^4-1H-indazol-5-yl-5-(trifluoromethyl)pyrimidine-2,4-diamine]
7.30 to 8.00	COc1cc(N2CCC(N(C)C)CC2)ccc1Nc1ncc(Cl)c(Nc2cc3cn[nH]c3cc2S(=O)(=O)C(C)C)n1 [Example 26, 5-chloro-N^2-{4-[4-(dimethylamino)piperidin-1-yl]-2-methoxyphenyl}-N^4-[6-(isopropylsulfonyl)-1H-indazol-5-yl]pyrimidine-2,4-diamine]
7.30 to 8.00	CCS(=O)(=O)c1cc2[nH]ncc2cc1Nc1nc(Nc2ccc(N3CCOCC3)cc2OC)ncc1Br [Example 32, 5-bromo-N^4-[6-(ethylsulfonyl)-1H-indazol-5-yl]-N^2-(2-methoxy-4-morpholin-4-ylphenyl)pyrimidine-2,4-diamine]
< 6.30	CCN1CCN(c2ccc(Nc3ncc(Br)c(Nc4ccc5ncn(Cc6ccccc6)c5c4)n3)cc2)CC1 [Example 5, N^4-(1-benzyl-1H-benzimidazol-6-yl)-5-bromo-N^2-[4-(4-ethylpiperazin-1-yl)phenyl]pyrimidine-2,4-diamine]
< 6.30	COc1cc(N2CCC(N(C)C)CC2)ccc1Nc1ncc(Cl)c(Nc2cccc3[nH]c(C)nc23)n1 [Example 17, 5-chloro-N^2-{4-[4-(dimethylamino)piperidin-1-yl]-2-methoxyphenyl}-N^4-(2-methyl-1H-benzimidazol-4-yl)pyrimidine-2,4-diamine]
7.30 to 8.00	COc1cc(N2CCC(N3CCN(C)CC3)CC2)ccc1Nc1ncc(Br)c(Nc2ccc3cccnc3c2)n1 [Example 50, 5-bromo-N^2-{2-methoxy-4-[4-(4-methylpiperazin-1-yl)piperidin-1-yl]phenyl}-N^4-quinolin-7-ylpyrimidine-2,4-diamine]
> 8.00	COc1cc(N2CCC(N3CCN(C)CC3)CC2)ccc1Nc1ncc(Br)c(Nc2cc3cnn(C)c3cc2S(=O)(=O)C(C)C)n1 [Example 28, 5-bromo-N^4-[6-(isopropylsulfonyl)-1-methyl-1H-indazol-5-yl]-N^2-{2-methoxy-4-[4-(4-methylpiperazin-1-yl)piperidin-1-yl]phenyl}pyrimidine-2,4-diamine]
7.30 to 8.00	COc1cc(N2CCC(N(C)C)CC2)ccc1Nc1ncc(Br)c(Nc2cc3cn[nH]c3cc2Cl)n1 [Example 20, 5-bromo-N^4-(6-chloro-1H-indazol-5-yl)-N^2-{4-[4-(dimethylamino)piperidin-1-yl]-2-methoxyphenyl}pyrimidine-2,4-diamine]
> 8.00	CCS(=O)(=O)c1cc2c(cnn2C)cc1Nc1nc(Nc2ccc(N3CCC(N(C)C)CC3)cc2OC)ncc1Br [Example 33, 5-bromo-N^2-{4-[4-(dimethylamino)piperidin-1-yl]-2-methoxyphenyl}-N^4-[6-(ethylsulfonyl)-1-methyl-1H-indazol-5-yl]pyrimidine-2,4-diamine]
7.30 to 8.00	COc1cc(N2CCC(N(C)C)CC2)ccc1Nc1ncc(Br)c(Nc2ccc3[nH]ncc3c2)n1 [Example 12, 5-bromo-N^2-{4-[4-(dimethylamino)piperidin-1-yl]-2-methoxyphenyl}-N^4-1H-indazol-5-ylpyrimidine-2,4-diamine]
< 6.30	COc1cc(N2CCC(N(C)C)CC2)ccc1Nc1ncc(Cl)c(Nc2ccc3oc(C)nc3c2)n1 [Example 25, 5-chloro-N^2-{4-[4-(dimethylamino)piperidin-1-yl]-2-methoxyphenyl}-N^4-(2-methyl-1,3-benzoxazol-5-yl)pyrimidine-2,4-diamine]
7.30 to 8.00	COc1cc(N2CCC(N3CCN(C)CC3)CC2)ccc1Nc1ncc(Br)c(Oc2ccc3cccnc3c2)n1 [Example 51, 5-bromo-N-{2-methoxy-4-[4-(4-methylpiperazin-1-yl)piperidin-1-yl]phenyl}-4-(quinolin-7-yloxy)pyrimidin-2-amine]
< 6.30	CCN1CCN(c2ccc(Nc3ncc(Br)c(Nc4ccc5[nH]c(Cc6ccccc6)nc5c4)n3)cc2)CC1 [Example 2, N^4-(2-benzyl-1H-benzimidazol-5-yl)-5-bromo-N^2-[4-(4-ethylpiperazin-1-yl)phenyl]pyrimidine-2,4-diamine]
< 6.30	COc1cc(N2CCC(N3CCN(C)CC3)CC2)ccc1Nc1ncc(Br)c(Nc2ccc3nc(-c4ccccc4)ccc3c2)n1 [Example 47, 5-bromo-N^2-{2-methoxy-4-[4-(4-methylpiperazin-1-yl)piperidin-1-yl]phenyl}-N^4-(2-phenylquinolin-6-yl)pyrimidine-2,4-diamine]
6.30 to 7.00	CCN1CCN(c2ccc(Nc3ncc(Br)c(Nc4cccc5oc(C)nc45)n3)cc2)CC1 [Example 15, 5-bromo-N^2-[4-(4-ethylpiperazin-1-yl)phenyl]-N^4-(2-methyl-1,3-benzoxazol-4-yl)pyrimidine-2,4-diamine]
